Results reported in US9533973B2, “Allosteric modulators of 5-hydroxytryptamine 2C receptor (5-HT2CR)” (THE BOARD OF REGENTS OF THE UNIVERSITY OF TEXAS SYSTEM, priority 2011, dated 2017).

How the values were obtained:
[1] = molecular target: T1, 5-HT2AR (Homo sapiens, UniProt P28223); assay: 5-HT induced intracellular calcium (Cai++) release assay in live 5-HT2AR-CHO cells; assay type: cell-based; details: compound alone or in the presence of 5-HT
T1 construct: expressed in transfected cells; host or cells: CHO cells (5-HT2AR—CHO)
T1 sequence (P28223 whole entry): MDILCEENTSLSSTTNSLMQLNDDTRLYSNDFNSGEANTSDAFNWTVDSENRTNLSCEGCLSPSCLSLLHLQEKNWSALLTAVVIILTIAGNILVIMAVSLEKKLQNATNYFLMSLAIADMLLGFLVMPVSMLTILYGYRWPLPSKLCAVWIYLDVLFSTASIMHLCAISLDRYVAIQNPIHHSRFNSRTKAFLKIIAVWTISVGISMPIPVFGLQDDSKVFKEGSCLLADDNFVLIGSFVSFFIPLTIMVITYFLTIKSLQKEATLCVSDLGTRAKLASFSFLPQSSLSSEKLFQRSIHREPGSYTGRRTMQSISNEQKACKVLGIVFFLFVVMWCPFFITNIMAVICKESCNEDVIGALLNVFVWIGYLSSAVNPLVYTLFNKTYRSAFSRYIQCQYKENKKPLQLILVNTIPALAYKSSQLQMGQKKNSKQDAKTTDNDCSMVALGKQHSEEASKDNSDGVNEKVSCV
Description: Selected results for the biological characterization of the synthesized compounds can be found in Ding et al., ACS Chem. Neurosci., 3, 538-545, 2012, and also described herein. The biological activity is assessed using an intracellular calcium (Cai^++) release assay. The best-characterized intracellular signaling pathway of the 5-HT2CR is the activation of phospholipase C (PLCβ) via Gαq/11 proteins and the production of diacylglycerol (DAG) and inositol-1,4,5-trisphosphate (IP3), leading to increased Cai^++ release from intracellular stores (Berg et al., Neuropharmacology 55, 969-76, 2008). Functional characterization of our synthetic PNU-69176E (CYD-1-78-2) and its diastereomer CYD-1-78-1 was determined by utilizing an Cai^++ release assay in live cells in which Cai^++ levels can be regarded as an outcome measure of activation of the 5-HT2CR signaling pathway (Berg et al., Neuropharmacology 55, 969-76, 2008). […]
Changes in Cai^++ levels were determined using the calcium sensitive dye Calcium 4 (FLIPR No-wash kit, Molecular Devices, Sunnyvale, Calif., part #R8142). […] Fluorescence (λex=485 nm, λem=525 nm) was measured with a FlexStation3 (Molecular Devices). […] Addition of 20 μL of 5× concentrated tested compound occurred at 17 sec and fluorescence was recorded every 1.7 sec for 90 sec to determine any innate agonist activity. […]

[2] = molecular target: T2, 5-HT2CR (Homo sapiens, UniProt P28335); assay: 5-HT induced intracellular calcium (Cai++) release assay in live 5-HT2CR-CHO cells; assay type: cell-based; parameters: expressed in transfected cells
T2 sequence (P28335 33-458): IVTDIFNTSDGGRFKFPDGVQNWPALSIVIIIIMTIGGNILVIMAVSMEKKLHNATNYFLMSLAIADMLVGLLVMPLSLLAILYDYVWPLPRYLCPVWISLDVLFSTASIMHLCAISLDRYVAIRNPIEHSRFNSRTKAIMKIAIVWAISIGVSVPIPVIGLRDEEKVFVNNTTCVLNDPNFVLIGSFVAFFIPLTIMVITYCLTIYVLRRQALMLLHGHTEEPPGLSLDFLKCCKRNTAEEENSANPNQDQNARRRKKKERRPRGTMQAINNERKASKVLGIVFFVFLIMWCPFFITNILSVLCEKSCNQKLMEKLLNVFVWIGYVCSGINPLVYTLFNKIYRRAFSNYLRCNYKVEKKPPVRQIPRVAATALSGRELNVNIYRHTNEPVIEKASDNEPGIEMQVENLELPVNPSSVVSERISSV
Description: Selected results for the biological characterization of the synthesized compounds can be found in Ding et al., ACS Chem. Neurosci., 3, 538-545, 2012, and also described herein. The biological activity is assessed using an intracellular calcium (Cai^++) release assay. The best-characterized intracellular signaling pathway of the 5-HT2CR is the activation of phospholipase C (PLCβ) via Gαq/11 proteins and the production of diacylglycerol (DAG) and inositol-1,4,5-trisphosphate (IP3), leading to increased Cai^++ release from intracellular stores (Berg et al., Neuropharmacology 55, 969-76, 2008). Functional characterization of our synthetic PNU-69176E (CYD-1-78-2) and its diastereomer CYD-1-78-1 was determined by utilizing an Cai^++ release assay in live cells in which Cai^++ levels can be regarded as an outcome measure of activation of the 5-HT2CR signaling pathway (Berg et al., Neuropharmacology 55, 969-76, 2008). […] In addition, 1 nM of compound CYD-1-78-2 enhanced the Cai^++ response at low concentrations of 5-HT [10^11-3×10^−10 M; F(15,55)=16.73, p<0.01; FIG. 2]. […] Neither compound CYD-1-78-2 [F(10,68)=0.81, n.s.] nor the diastereomer CYD-1-78-1 [F(10,34)=0.76, n.s.] in concentrations up to 10^−5 M induced Cai^++ release in the 5-HT2CR—CHO cells in the absence of 5-HT (FIG. 3). This profile for compounds CYD-1-78-2 and −1 in 5-HT2CR—CHO cells was distinguished from that seen in 5-HT2AR—CHO cells in which neither compound alone or in the presence of 5-HT (compound CYD-1-78-1, F(10,43)=0.78; compound CYD-1-78-2, F(10,55)=1.27; FIG. 4) altered Cai^++ release (Ding et al., ACS Chem. Neurosci. 3, 538-545, 2012).
The Chinese hamster ovary (CHO) cell line stably transfected with 5-HT2CR was a generous gift of K. Berg and W. Clarke (University of Texas Health Science Center, San Antonio) (K. A. Berg, W. P. Clarke, C. Sailstad, A. Saltzman and S. Maayani, Mol. Pharmacol. 1994, 46 (3), 477-484; Ding et al., ACS Chem. Neurosci. 3, 538-545, 2012). Cells were grown at 37° C., 5% CO2 and 85% relative humidity in GlutaMax α-MEM (Invitrogen, Carlsbad Calif.), 5% fetal bovine serum (Atlanta Biologicals, Atlanta Ga.), 100 μg/mL hygromycin (Mediatech, Manassas Va.) and were passaged when they reached 80% confluence.
Changes in Cai^++ levels were determined using the calcium sensitive dye Calcium 4 (FLIPR No-wash kit, Molecular Devices, Sunnyvale, Calif., part #R8142). Cells were plated in serum-replete medium at 20,000 cells/well in black-sided, clear bottom 96-well tissue culture plates and were fed ˜24 hrs later with serum-free medium. Following overnight incubation, medium was removed and replaced with 40 μL of fresh serum-free medium plus 40 μL Calcium 4 dye solution in Hank's balanced saline solution (HBSS, without CaCl2 or MgCl2) supplemented with 2.5 mM water soluble probenicid (Invitrogen) to inhibit extracellular transport of the dye. Plates were incubated for 60 min at 37° C. and 60 min at room temperature in the dark. Fluorescence (λex=485 nm, λem=525 nm) was measured with a FlexStation3 (Molecular Devices). A baseline was established for each well during the initial segment of each run. Addition of 20 μL of 5× concentrated tested compound occurred at 17 sec and fluorescence was recorded every 1.7 sec for 90 sec to determine any innate agonist activity. This first round of 90 sec recordings provided a 20 min preincubation period. […] Maximum peak height was determined by the FlexStation software (SoftMax Pro 5.2) for each well and was normalized to vehicle control.

alteration of Cai++ release in 5-HT2AR-CHO cells [1]: neither | Cai++ release induced by 0.3 nM 5-HT in presence of compound ([2]; 0.3 nM 5-HT (~EC20) alone gives 23.9%, 5-HTmax determined at 1 μM 5-HT): 48.5 % of 5-HTmax | effect on Cai++ release induced by 0.3 nM 5-HT ([2]; 0.3 nM 5-HT, 5-HT2CR-CHO cells): potentiated | concentrations that significantly enhanced Cai++ release above that of 0.3 nM 5-HT alone ([2]; 0.3 nM 5-HT, Dunnett's, p<0.05): 10^−13-10^−7 M | effect of 1 nM compound on Cai++ response at low concentrations of 5-HT ([2]; 1 nM compound, 5-HT 10^11-3×10^−10 M): enhanced | effect on Cai++ release at the highest concentration utilized ([2]; 10^−5 M compound, 0.3 nM 5-HT, p<0.05): reduced
SMILES: CCCCCCCCCCC[C@@H]1CCN[C@H](C(=O)N[C@@H]([C@H]2O[C@H](SC)[C@H](O)[C@@H](O)[C@H]2O)[C@H](C)Cl)C1.Cl [CYD-1-78-2]
Cai++ release in the absence of 5-HT (intrinsic agonist activity) ([2]; concentrations up to 10^−5 M, no 5-HT): n.s. and did not detect intrinsic agonist activity
